Reference: patent publication US10709714B2 (CL BioSciences LLC, priority 2013, dated 2020)
Read-outs that look alike come from different tables or passages of the source. One block for each molecule: values may come before it. Ends that are not written are not given here.

Key:
[1] = system: isolated G cells; test: Gastrin release from isolated G cells; assay type: cell-based; conditions: for EC50: read-out: EC50, stimulation of gastrin release
Protocol: (§1) The effect of the ovarian hormone, estrogen on G cell function was evaluated.

[2] = system: isolated G cells; test: cAMP production in isolated G cells; assay type: cell-based
Protocol: as §1

[3] = system: MAPK phosphorylation in G cells; test: MAPK phosphorylation in G cells; assay type: cell-based; conditions: preincubation
[4] = system: G cells; test: Calcium influx in G cells (flow cytometry, FITC shift); assay type: cell-based; conditions: CaCl2 4 mM
[5] = system: isolated rodent G cells; conditions: for EC50: read-out: Calcium (EC50); for IC50: read-out: OCTR (IC50)
Text: This animal has been extensively studied as a model of gastric acid pathophysiology relevant to long-term pharmacological inhibition of acid secretion (low acid state pathobiology).

[6] = system: PTH chief cells; conditions: read-out: EC50, stimulation of PTH release; human PTH chief cells
[7] = system: isolated G cells; test: Gastrin release from isolated G cells; assay type: cell-based; conditions: for effect on CaCl2-mediated gastrin release: nifedipine 1 μm (preincubation 10 mins), H-89 10 μM, PD98059 0.1 μM, wortmannin 1 nM
[8] = biological target: T1, CCK2 receptor (Homo sapiens, UniProt P32239); test: Gastrin-stimulated cAMP production and calcitonin release/transcription in MTC-SK cells; assay type: cell-based; conditions: H-89 10 μM preincubation
T1 construct: Gastrin stimulated both cAMP as well as calcitonin release from the well-differentiated human MTC cell line, MTC-SK; endogenous in cells; host or cells: MTC-SK (human medullary thyroid carcinoma cell line)
T1 sequence (P32239 1-447): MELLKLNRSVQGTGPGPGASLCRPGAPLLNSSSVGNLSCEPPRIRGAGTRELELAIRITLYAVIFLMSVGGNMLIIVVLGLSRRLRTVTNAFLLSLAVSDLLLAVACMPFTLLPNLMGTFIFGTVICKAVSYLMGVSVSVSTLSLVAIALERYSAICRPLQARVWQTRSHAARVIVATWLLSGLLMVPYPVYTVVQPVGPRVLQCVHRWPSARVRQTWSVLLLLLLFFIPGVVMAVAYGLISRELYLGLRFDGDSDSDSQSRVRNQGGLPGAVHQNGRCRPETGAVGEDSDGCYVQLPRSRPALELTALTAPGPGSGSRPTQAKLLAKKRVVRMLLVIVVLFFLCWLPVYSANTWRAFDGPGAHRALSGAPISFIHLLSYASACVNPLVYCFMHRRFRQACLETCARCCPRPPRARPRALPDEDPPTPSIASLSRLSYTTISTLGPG

[9] = system: Mastomys femur; test: Bone histomorphometry (TRAP-positive osteoclasts) in loxtidine-treated Mastomys; assay type: in vivo
Protocol: In one aspect, the changes in loxtidine-treated animals reflect loss of bone mineralization and increased resorption—features consistent with osteoporotic phenotypes. BM=bone mineralization, RC=resorption cavity.
Animals (females) 4-6 months old were treated with Loxtidine for 60 or 120 days. Age- and sex-matched untreated animals provided a control group.
Thereafter, bone histomorphometry was examined. […] Evidence of osteoid seams and osteomalacia was also noted (FIG. 21).

[10] = Plasma gastrin in Mastomys under irreversible gastric acid suppression; assay type: in vivo; conditions: Mastomys 6-9 months, treated 30 days, Loxtidine 1 mg/L in drinking water
Text: This animal has been extensively studied as a model of gastric acid pathophysiology relevant to long-term pharmacological inhibition of acid secretion (low acid state pathobiology). […] Such treatment therefore results in an achlorhydric and hypergastrinemic animal model.

[11] = biological target: gastrin/CCK2 receptor (human, on isolated PTH chief cells and on the MTC-SK cell line) (human) (UniProt P32239); test: cell-based or functional assay
[12] = 0.02-4 U/min, young anesthetized pigs; cited from earlier work
[13] = biological target: T2, calcitonin receptor on G cells; test: cell-based or functional assay
T2 sequence (P30988 whole entry, species assumed, looked up): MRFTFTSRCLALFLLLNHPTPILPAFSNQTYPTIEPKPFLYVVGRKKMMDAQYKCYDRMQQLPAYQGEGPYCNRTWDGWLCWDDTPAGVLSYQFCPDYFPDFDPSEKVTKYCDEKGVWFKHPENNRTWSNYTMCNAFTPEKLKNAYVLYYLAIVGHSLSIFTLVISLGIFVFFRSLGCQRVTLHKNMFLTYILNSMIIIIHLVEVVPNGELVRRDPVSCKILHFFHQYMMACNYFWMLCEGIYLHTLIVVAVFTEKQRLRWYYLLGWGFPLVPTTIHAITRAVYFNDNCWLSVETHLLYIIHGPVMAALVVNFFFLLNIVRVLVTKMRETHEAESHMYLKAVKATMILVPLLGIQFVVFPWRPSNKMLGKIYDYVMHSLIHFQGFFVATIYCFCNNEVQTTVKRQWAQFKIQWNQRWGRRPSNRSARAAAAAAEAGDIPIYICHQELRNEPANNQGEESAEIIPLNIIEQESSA

[14] = biological target: PTH receptor on G cells; test: cell-based or functional assay
[15] = H-89 10 μM preincubation 10 mins

IC50 ([1]; read-out: IC50, inhibition of gastrin release): 4.6 pM
IC50 ([2]; read-out: IC50, inhibition of cAMP synthesis): 0.0011 nM
Molecule: C[C@]12CC[C@@H]3c4ccc(O)cc4CC[C@H]3[C@@H]1CC[C@@H]2O [17β-estradiol]
inhibition of gastrin release [1]: ~20%
inhibition of cAMP production [2]: −15%
inhibition of MAPK phosphorylation [3]: 75%

EC50 ([1]; isolated G cells): 4100 µM
EC50 ([5]; Low acid G-cells): 10000 µM
Molecule: [Ca+2].[Cl-].[Cl-] [CaCl2]
calcium influx (FITC shift rightwards) [4]: > 5 fold
stimulation of gastrin release ([1]; isolated G cells): 8 fold
cAMP production during calcium-mediated gastrin secretion [2]: not associated with cAMP production
EC50 ([5]; Normal G-cells): 4000 µM

IC50 ([2]; read-out: I50, inhibition of cAMP production): 3.8 nM
Molecule: CC(C)C[C@H](NC(=O)[C@H](CCCCN)NC(=O)CNC(=O)[C@H](CC(C)C)NC(=O)[C@@H](NC(=O)[C@@H]1CSSC[C@H](N)C(=O)N[C@@H](CO)C(=O)N[C@@H](CC(N)=O)C(=O)N[C@@H](CC(C)C)C(=O)N[C@@H](CO)C(=O)N[C@@H]([C@@H](C)O)C(=O)N1)C(C)C)C(=O)N[C@@H](CO)C(=O)N[C@@H](CCC(N)=O)C(=O)N[C@@H](CCC(=O)O)C(=O)N[C@@H](CC(C)C)C(=O)N[C@@H](Cc1c[nH]cn1)C(=O)N[C@@H](CCCCN)C(=O)N[C@@H](CC(C)C)C(=O)N[C@@H](CCC(N)=O)C(=O)N[C@H](C(=O)N[C@@H](Cc1ccc(O)cc1)C(=O)N1CCC[C@H]1C(=O)N[C@@H](CCCNC(=N)N)C(=O)N[C@H](C(=O)N[C@@H](CC(N)=O)C(=O)N[C@H](C(=O)NCC(=O)N[C@@H](CO)C(=O)NCC(=O)N[C@H](C(=O)N1CCC[C@H]1C(N)=O)[C@@H](C)O)[C@@H](C)O)[C@@H](C)O)[C@@H](C)O [Calcitonin]
inhibition of gastrin release [1]: ~20%
inhibition of cAMP production [2]: 20%

Molecule: CSCC[C@H](NC(=O)[C@H](Cc1c[nH]c2ccccc12)NC(=O)CNC(=O)[C@H](Cc1ccc(O)cc1)NC(=O)[C@H](C)NC(=O)[C@H](CCC(=O)O)NC(=O)[C@H](CCC(=O)O)NC(=O)[C@H](CCC(=O)O)NC(=O)[C@H](CCC(=O)O)NC(=O)[C@H](CCC(=O)O)NC(=O)[C@H](CC(C)C)NC(=O)[C@H](Cc1c[nH]c2ccccc12)NC(=O)[C@@H]1CCCN1C(=O)CNC(=O)[C@@H]1CCC(=O)N1)C(=O)N[C@@H](CC(=O)O)C(=O)N[C@@H](Cc1ccccc1)C(N)=O [Gastrin]
EC50 [6]: 0.00042 µM

effect on gastrin-stimulated cAMP production [8]: inhibited
effect on gastrin-stimulated calcitonin gene transcription [8]: reversed
Molecule: O=S(=O)(NCCNC/C=C/c1ccc(Br)cc1)c1cccc2cnccc12 [H-89]
effect on calcitonin inhibition of gastrin release ([7]; H-89 10 μM preincubation): reversed
effect on PTH-stimulated gastrin release [7, 15]: inhibited
effect on CaCl2-mediated gastrin release [7]: could not be inhibited
effect on PTH-stimulated cAMP production [2, 15]: reversed

Molecule: Cn1nc(CO)nc1NCCCOc1cccc(CN2CCCCC2)c1 [Loxtidine]
numbers of TRAP-positive osteoclasts ([9]; 8-week treated Mastomys): 15±6
numbers of TRAP-positive osteoclasts ([9]; 16-week treated Mastomys): 16±4.5
plasma gastrin levels [10]: 104 ± 23 pg/mL

Molecule: C[C@@H](O)[C@@H]1NC(=O)[C@H](CCCCN)NC(=O)[C@@H](Cc2c[nH]c3ccccc23)NC(=O)[C@H](Cc2ccccc2)NC(=O)[C@@H](NC(=O)[C@H](N)Cc2ccccc2)CSSC[C@@H](C(=O)N[C@H](CO)[C@@H](C)O)NC1=O [OCTR, octreotide]
increase of IC50 in low acid versus normal G cells [5]: ~5 fold
IC50 ([5]; Low acid G-cells): 140 pM
IC50 ([5]; Normal G-cells): 28 pM

Molecule: COc1cccc(-c2cc(=O)c3ccccc3o2)c1N [PD98059]
effect on CaCl2-mediated gastrin release [7]: could not be inhibited

EC50 ([1]; estimated): 0.06 µM
EC50 ([2]; read-out: E50, stimulation of cAMP production): 0.004 µM
Molecule: PTH: parathyroid hormone
stimulation of gastrin release ([1]; isolated G cells): ~8 fold
stimulation of cAMP production [2]: 250%

PTH release from isolated human PTH chief cells [11]: 420 pM
PTH synthesis in isolated human PTH chief cells [11]: 1 nM
cAMP production in MTC-SK cells [11]: 0.67 pM
Molecule: gastrin (ligand)

Molecule: synthetic human 1-34 PTH: synthetic human 1-34 parathyroid hormone used in cited pig studies (SVSEIQLMHNLGKHLNSMERVEWLRKKLQDVHNF; Parathyroid hormone; UniProt P01270 32-65, looked up, fragment)
increase in gastrin release [12]: approximately 10 fold

inhibition of cAMP production in isolated G cells [13]: 3.8 nM
inhibition of gastrin release from isolated G cells [13]: 1.9 nM
Molecule: CGNLSTCMLGTYTQDFNKFHTFPQTAIGVGAP (ligand, UniProt P01258 85-116, looked up, species assumed, ends and bridges not checked; cysteine pairing not given here) [calcitonin]

B1: native bovine PTH: native bovine parathyroid hormone used in cited pig studies (peptide, UniProt P01268 32-115, looked up)
Parathyroid hormone: AVSEIQFMHNLGKHLSSMERVEWLRKKLQDVHNFVALGASIAYRDGSSQRPRKKEDNVLVESHQKSLGEADKADVDVLIKAKPQ
modifications: Parathyroid hormone
notes: native bovine parathyroid hormone used in cited pig studies
increase in gastrin release [12]: approximately 10 fold

cAMP production in isolated G cells [14]: 4 nM
gastrin release from isolated G cells [14]: 60 nM
B2: PTH (parathyroid hormone) (ligand, UniProt P01270 32-115, looked up, species assumed)
Parathyroid hormone: SVSEIQLMHNLGKHLNSMERVEWLRKKLQDVHNFVALGAPLAPRDAGSQRPRKKEDNVLVESHEKSLGEADKADVNVLTKAKSQ
modifications: Parathyroid hormone
